Measurements: patent US10227331B2 (priority 2015, dated 2019)
Read-outs that look alike come from different tables or passages of the source.

Experiments:
[1] = target: IMP-1 (Serratia marcescens, UniProt P52699); assay: biochemical; type: biochemical
Method in brief: (§1)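 Fluorescence assay of metallo-β-lactamase activity using CCF2-FA, a cephalosporin-linked 7-hydroxycoumarin–fluorescein substrate. Inhibitor, enzyme and substrate were incubated together for 2 hours at 25° C. IC50 came from a 4-parameter fit of inhibition versus inhibitor concentration.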

[2] = target: NDM-1 (Klebsiella pneumoniae, UniProt C7C422); assay: biochemical; type: biochemical; settings: CCF2-FA substrate, 2 hours at 25° C; read-out: NDM-1 IC50
Method in brief: as §1

[3] = target: VIM-1 (Pseudomonas aeruginosa (strain ATCC 15692 / DSM 22644 / CIP 104116 / JCM 14847 / LMG 12228 / 1C / PRS 101 / PAO1), UniProt A0A0F7KYQ8); assay: biochemical; settings: CCF2-FA substrate, 2 hours at 25° C
Method in brief: as §1

[4] = tested on: Escherichia coli expressing NDM-1 (CLB30005, CLB30016); type: cell-based; settings: with imipenem 1 μg/ml, 95% inhibition of bacterial growth; for Escherichia coli MITC95: NDM-1 (CLB30016)
Method in brief: (§2)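 Clinical strains grown overnight on blood agar, then diluted 1:100 in 1.1× CAMHB and exposed to test compound with imipenem at 1 μg/ml. Incubation was 22–24 h at 35° C; growth was read by absorbance to find the compound concentration restoring imipenem susceptibility.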

[5] = tested on: Klebsiella pneumoniae expressing VIM-1 (IHMA599644); type: cell-based; settings: with imipenem 1 μg/ml, 95% inhibition of bacterial growth; for Klebsiella pneumoniae MITC95: VIM-1 (IHMA599644)
Method in brief: as §2

[6] = tested on: Serratia marcescens expressing IMP-1 (CL5741); type: cell-based; settings: with imipenem 1 μg/ml, 95% inhibition of bacterial growth; for Serratia marcescens MITC95: IMP-1 (CL5741)
Method in brief: as §2

[7] = tested on: P. aeruginosa expressing IMP-1, efflux+ (MB9798); type: cell-based, Pseudomonas aeruginosa; settings: for P. aeruginosa expressing IMP-1, efflux+ (MB9798) MITC95: imipenem at 2 μg/mL, in the presence of a class A, C, D serine β-lactamase inhibitor closely related to relebactam; for Efflux ratio: ratio MITC95 PA_9798/MITC95 PA_9799
Excerpt: (§3) The strain background is Pseudomonas aeruginosa PAO1.

[8] = tested on: P. aeruginosa expressing IMP-1, efflux− (MB9799); assay: Efflux: concentration of MBL inhibitor which restores susceptibility to imipenem; type: cell-based, Pseudomonas aeruginosa; settings: imipenem at 2 μg/mL, in the presence of a class A, C, D serine β-lactamase inhibitor closely related to relebactam
Excerpt: as §3

[9] = CCF2-FA substrate, 2 hours at 25° C, read-out: IMP-1 IC50

NDM-1, sequence (C7C422 whole entry, looked up, species assumed): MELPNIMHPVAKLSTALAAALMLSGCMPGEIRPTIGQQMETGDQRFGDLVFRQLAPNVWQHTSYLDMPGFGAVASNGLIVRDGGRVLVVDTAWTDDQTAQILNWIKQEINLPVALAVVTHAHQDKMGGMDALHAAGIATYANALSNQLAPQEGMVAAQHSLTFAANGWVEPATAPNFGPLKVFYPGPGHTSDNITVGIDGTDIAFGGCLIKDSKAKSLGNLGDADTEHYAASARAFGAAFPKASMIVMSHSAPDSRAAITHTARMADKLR
IMP-1, sequence (P52699 whole entry, looked up, species assumed): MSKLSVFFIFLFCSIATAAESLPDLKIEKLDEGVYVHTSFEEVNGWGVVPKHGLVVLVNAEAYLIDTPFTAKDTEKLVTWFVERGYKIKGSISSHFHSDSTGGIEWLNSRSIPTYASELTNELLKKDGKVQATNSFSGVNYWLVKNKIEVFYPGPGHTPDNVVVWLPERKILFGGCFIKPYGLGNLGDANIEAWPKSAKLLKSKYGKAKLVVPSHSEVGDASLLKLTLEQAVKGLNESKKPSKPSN

Row | Structure (SMILES) | IC50 [1, 9] [nM] | IC50 [2] [nM] | IC50 [3] [nM] | Escherichia coli expressing NDM-1 (CLB30016) MITC95 [4] [µM] | Klebsiella pneumoniae expressing VIM-1 (IHMA599644) MITC95 [5] [µM] | Serratia marcescens expressing IMP-1 (CL5741) MITC95 [6] [µM] | P. aeruginosa expressing IMP-1, efflux+ (MB9798) MITC95 [7] [µM] | Efflux ratio [7] | P. aeruginosa expressing IMP-1, efflux− (MB9799) MITC95 [8] [µM] | Escherichia coli MITC95 [4] [µM] | Klebsiella pneumoniae MITC95 [5] [µM] | Serratia marcescens MITC95 [6] [µM] | IC50 [1] [nM]
1 | NS(=O)(=O)c1c(S(=O)(=O)C2CNC2)ccc(-c2cccc3sc(C(=O)O)nc23)c1-c1nnn[nH]1 [Example 68, 4-(4-(azetidin-3-ylsulfonyl)-3-sulfamoyl-2-(1H-tetrazol-5-yl)phenyl)benzo[d]thiazole-2-carboxylic Acid] | 0.356 | 0.0709 | 0.256 | 6.25 | 12.5 | 6.25 | 6.25 | 2.00 | 3.125 |  |  |  | 
2 | NCCNC(=O)c1cccc(-c2ccc(S(=O)(=O)C3CNC3)c(S(N)(=O)=O)c2-c2nn[nH]n2)c1N [Example 288, 2-amino-N-(2-aminoethyl)-4′-(azetidin-3-ylsulfonyl)-5′-sulfamoyl-6′-(2H-tetrazol-5-yl)biphenyl-3-carboxamide] | 9.83 | 1.67 | 0.861 |  |  |  | 3.125 | 4.00 | 0.7813 | 3.125 | 1.563 | 3.125 | 
3 | NCCS(=O)(=O)c1ccc(-c2ccc3scnc3c2)c(-c2nnn[nH]2)c1S(N)(=O)=O.O=C(O)C(F)(F)F [Example 174, 2-((4-(benzo[d]thiazol-5-yl)-2-sulfamoyl-3 (1H-tetrazol-5-yl)phenyl)sulfonyl)ethanaminium 2,2,2-trifluoroacetate] | 0.22 | 0.392 | 0.14 | 0.3906 | 1.563 | 0.7813 | 3.125 | 8.00 | 0.3906 |  |  |  | 
4 | Cc1ccc(-c2ccc(S(=O)(=O)C3CNC3)c(S(N)(=O)=O)c2-c2nn[nH]n2)c2nc(N)sc12 [Example 32, 3-(2-amino-7-methylbenzo[d]thiazol-4-yl)-6-(azetidin-3-ylsulfonyl)-2-(2H-tetrazol-5-yl)benzenesulfonamide] | 0.138 | 0.0331 | 0.106 | 0.3906 | 1.563 | 0.7813 | 1.563 | 2.00 | 0.7813 |  |  |  | 
5 | Nc1nc2c(-c3ccc(S(=O)(=O)[C@@H]4CN[C@H](CO)C4)c(S(N)(=O)=O)c3-c3nn[nH]n3)cccc2[nH]1 [Example 350, 3-(2-Amino-1H-benzo[d]imidazol-4-yl)-6-(((3S,5S)-5-(hydroxymethyl)pyrrolidin-3-yl)sulfonyl)-2-(2H-tetrazol-5-yl)benzenesulfonamide] | 0.982 | 0.25 | 0.674 |  |  |  | 1.563 | 1.00 | 1.563 | 0.7813 | 3.125 | 1.563 | 
6 | NS(=O)(=O)c1c(SC2CCNCC2)ccc(-c2ccc(C3CCNCC3)cc2)c1-c1nnn[nH]1 [Example 226, 4′-(piperidin-4-yl)-4-(piperidin-4-ylthio)-2-(1H-tetrazol-5-yl)-[1,1′-biphenyl]-3-sulfonamide] | 35.7 | 15.1 | 48.5 | 1.563 | 6.25 | 3.125 | 25 | 32.00 | 0.7813 |  |  |  | 
7 | CSc1ccc(-c2ccc(C3CCNCC3)cc2)c(-c2nnn[nH]2)c1S(N)(=O)=O [Example 234, 4-(Methylthio)-4′-(piperidin-4-yl)-2-(1H-tetrazol-5-yl)-[1,1′-biphenyl]-3-sulfonamide] | 4.37 | 15.7 | 13.9 | 3.125 | 12.5 | 3.125 | 50 | 64.00 | 0.7813 |  |  |  | 
8 | CC(C)(N)CS(=O)(=O)c1ccc(-c2cccc3sc(N)nc23)c(-c2nn[nH]n2)c1S(N)(=O)=O [Example 94, 6-(2-amino-2-methylpropylsulfonyl)-3-(2-aminobenzo[d]thiazol-4-yl)-2-(2H-tetrazol-5-yl)benzenesulfonamide] | 0.504 | 0.206 | 0.222 | 0.7813 | 3.125 | 1.563 | 3.125 | 2.00 | 1.563 |  |  |  | 
9 | NCCS(=O)(=O)c1ccc(-c2cccc(-c3c[nH]c(N)n3)c2)c(-c2nnn[nH]2)c1S(N)(=O)=O [Example 346, 3′-(2-Amino-1H-imidazol-4-yl)-4-((2-aminoethyl)sulfonyl)-2-(1H-tetrazol-5-yl)-[1,1′-biphenyl]-3-sulfonamide] | 1.97 | 0.518 | 0.931 |  |  |  | 6.25 | 8.00 | 0.7813 | 0.3906 | 1.563 | 1.563 | 
10 | NS(=O)(=O)c1c(S(=O)(=O)C2CNC2)ccc(-c2ccc(C3CCNCC3)cc2)c1-c1nn[nH]n1 [Example 6] | 0.212 | 0.307 | 0.195 | 0.7813 | 1.563 | 1.563 | 0.7813 | 1.00 | 0.7813 |  |  |  | 
11 | Cc1ccc(-c2ccc(S(=O)(=O)C3CNC3)c(S(N)(=O)=O)c2-c2nn[nH]n2)c2sc(N)nc12 [Example 33, 3-(2-amino-4-methylbenzo[d]thiazol-7-yl)-6-(azetidin-3-ylsulfonyl)-2-(2H-tetrazol-5-yl)benzenesulfonamide] | 0.296 | 0.0239 | 0.12 | 1.563 | 3.125 | 1.563 | 3.125 | 2.00 | 1.563 |  |  |  | 
12 | Cn1cc(C(=O)C(F)(F)F)c2c(-c3ccc(S(=O)(=O)C4CNC4)c(S(N)(=O)=O)c3-c3nnn[nH]3)cccc21 [Example 229, 6-(azetidin-3-ylsulfonyl)-3-(1-methyl-3-(2,2,2-trifluoroacetyl)-1H-indol-4-yl)-2-(1H-tetrazol-5-yl)benzenesulfonamide] |  | 0.139 | 0.474 | 6.25 | 12.5 | 6.25 | 25 | 4.00 | 6.25 |  |  |  | 1.74
13 | Nc1nc2c(-c3ccc(S(=O)(=O)c4cccc(C(F)(F)F)c4)c(S(N)(=O)=O)c3-c3nn[nH]n3)cccc2s1 [Example 250, 3-(2-Aminobenzo[d]thiazol-4-yl)-2-(2H-tetrazol-5-yl)-6-((3-(trifluoromethyl)phenyl)sulfonyl)benzenesulfonamide] | 0.82 | 0.245 | 0.681 |  |  |  | 200 | 64.00 | 3.125 | 6.25 | 100 | 6.25 | 
